Columns and labels:
[1] = system: angiotensin II-induced hypertensive rats; assay: Effect on blood pressure in angiotensin II-induced hypertensive rats; assay type: in vivo, Sprague-Dawley rats; settings: male SD rats, single equimolar dose ig (0.11 mg/kg example 1; 0.123 mg/kg example 2) in 0.5% methyl cellulose, AII 100 ng/kg iv again after 24 hours, Mean±S.E.
Method: The effect of compounds of the present invention on blood pressure in angiotensin II-induced hypertensive rats was investigated.
Male Sprague-Dawley rats (9-11 weeks old, CLEA Japan, Inc.) were anesthetized by pentobarbital solution (50 mg/kg, ip.) and prepared for surgery. The surgery procedure was as follows: made an incision through the skin on the abdomen and abdominal wall, separated the aorta and vein from the vena cava, occluded blood flow to allow introduction of a polyethylene (PE) tube filled with normal saline containing heparin (200 U/mL) into the vessel, passed the PE tube through the subcutaneous slits, and fixed the PE tube at the back of the neck. After recovery period, the rats were induced hypertension by intravenous administration of 100 ng/kg angiotensin II (AII). The PE tube was combined with a pressure transducer coupled to a blood pressure monitor amplifier (2238, NEC San-ei Instruments). The animals were enrolled based on average systolic blood pressure over 24 hours. All the animals with average systolic blood pressure less than 140 mmHg were excluded from this study, and the others were divided into 2 groups. […] The rats were injected intravenously AII again after 24 hours, and their blood pressure were measured by the monitor. The rat blood pressure inhibition ratios after dosing were calculated. […] The results were expressed as Mean±S.E. (Table 1).

[2] = system: angiotensin II-induced hypertensive dogs; assay: Effect on blood pressure in angiotensin II-induced hypertensive dogs; assay type: in vivo; settings: male Beagle dogs, equimolar dose ig (1.10 mg/kg example 1; 1.23 mg/kg example 2) in 0.5% methyl cellulose, mean±S.E.
Method: The effect of compounds of the present invention on blood pressure in angiotensin II-induced hypertensive dogs was investigated.
In this study, male Beagle dogs (weighting 12.0-14.7 kg, KITAYAMA LABES, CO., LTD.) were employed. The dogs were anesthetized by pentobarbital solution (50 mg/kg, ip) and prepared for surgery. The surgery procedure was as follows: made an endotracheal intubation for controlling the breathing, shaved the regions of femoral and back of the neck, fixed the dogs at the dorsal position, used isodine solution (MEIJI SEIKA KAISHA, LTD.) to sterilize the skins, made an incision through the skin on the right femoral region, separated the arteria femoralis, occluded blood flow to allow introduction of a mirror catheter (5 F, MILLER INDUSTRIES) and polyurethane tube into the aorta and vein, respectively, passed the tubes through the subcutaneous slits and fixed the tubes at the back, closed the wall and sutured the skin, and injected intramuscularly the penicillin G potassium (MEIJI SEIKA KAISHA, LTD., 40,000 units) for sterilization. For post-operative care, animals were administered 40,000 units penicillin G potassium intramuscularly once daily for 3 days. There was a recovery period before study ongoing.
The animals were singly housed in a small metabolic cage and fasted during the experiment. The mirror catheter was linked to a transducer unit (MILLER INDUSTRIES). Through a DC amplifier (N4777, NEC San-ei Instruments) and a blood pressure monitor amplifier (N4441, NEC San-ei Instruments), the blood pressure was recorded by a recorder (RECTI-HORIZ 8 K, NEC San-Ei Instruments). In order to establish a hypertension model, the dogs were injected intravenously 100 ng/kg AII for 3 or 4 times before dosing test articles. The test articles were an equal molar dose suspended in 0.5% methyl cellulose, and the dosing volume for all animals was 2 mL/kg. After administration, the blood pressure was measured by the monitor. The dog blood pressure inhibition ratios after dosing were calculated, and the results were expressed as mean±S.E. (Table 2).

Row | SMILES | Inhibition ratios (%) (blood pressure inhibition ratio after dosing) [1] | Inhibition ratios (%) 10 hr post dosing [2] | Inhibition ratios (%) 24 hr post dosing [2]
1 | CCOc1nc2cccc(C(=O)O)c2n1Cc1ccc(-c2ccccc2-c2noc(=O)[nH]2)cc1.C[N+](C)(C)CCO [Product of example 2, Azilsartan choline] | 54.3 ± 5.1% | 79.3 ± 8.6% | 59.5 ± 6.3%
2 | CCOc1nc2cccc(C(=O)O)c2n1Cc1ccc(-c2ccccc2-c2noc(=O)[nH]2)cc1.NCCO [Product of example 1, Azilsartan ethanolamine] | 57.4 ± 6.7% | 82.7 ± 7.3% | 61.6 ± 4.8%

From patent US20120238606A1, “[…] AMINE SALTS, PREPARATION METHOD AND USE THEREOF” (JIANGSU HANS PHA[…] CO., LTD., priority 2009, published 2012)
